In US7893109B2, “N,N-dihalogenated amino acids and derivatives” (Novabay Pharmaceuticals, Inc., priority 2003, dated 2011):
In brackets after ≈: the same amount, converted by molar mass. Read-outs that look alike come from different tables or passages of the source.

Experiments:
[1] = tested on: Primary Human Skin Fibroblasts; test: XTT cytotoxicity assay, primary human skin fibroblasts; conditions: for cell inhibitory concentration toxicity index (CCI50 / IC50), 50% of cells still alive: Primary Human Skin Fibroblasts, XTT Assay, 60 min exposure
Procedure: (§1) Cytotoxicity was assessed by a […] assay system, initially described by Scudiero et al., using 3′-(phenylamino-carbonyl)-3,4-tetrazolium-bis(4-methoxy-6-nitro) benzene sulfonic acid hydrate (XTT), ProCheck™ cell viability assay (Evaluation of a soluble tetrazolium/formazan assay for cell growth and drug sensitivity in culture using human and other tumor cell lines described by Scudiero D A, Shoemaker R A H, Paul K D, Monks A, Tierney S, Nofziger T H, Currens M J, Seniff D, Boyd M R. Cancer Res. 1988 Sep. 1; 48(17):4827-33). Similar approaches for determining the cell viability are used by other investigators. Three cell types were used: […] (L929), primary human skin fibroblast and primary human keratinocyte cells cultured in Dulbecco Modified Eagle's Medium and Keratinocyte defined medium with corresponding growth factors plus antibiotics. Cells were trypsinized and counted under the microscope and seeded at 1000-to-2000 cells per well of a flat-bottom 96-well plate. Cells were allowed to grow over-night at 37° C. Next day, tissue culture media was removed and cells were rinsed with fresh media 1× and then left in 50 μL of tissue culture media. Test articles were prepared as 2-fold dilutions and 200 μL was added into each set of 4-wells (total volume per well=250 μL). Cells were exposed to test articles for 60 min at room temperature. Immediately after the exposed time, test article from each well was removed and cells were fed with 250 μL of fresh media. Plates were incubated at 37° C. for 18-20 hours. The following day media was removed again and replaced with 100 μL/well of fresh media containing 10/100 μL XTT-reagent. Cells were incubated under growth conditions (5% CO2 at 37° C. humidified incubator), protected from light, until color development was achieved. Absorbance was read at 450 nm with reference wavelength at 750 nm using Molecular Device ThermoMax Plate reader, blanking the plate on the medium-only assay blank wells. Untreated cells receiving XTT reagents-only served as positive cell proliferation control.

[2] = tested on: Escherichia coli (ATCC 11229); test: Bactericidal activity (MBC / effective antimicrobial concentration); format: cell-based
Procedure: To determine the bactericidal activity, we used Escherichia coli (ATCC 11229). The bacterial culture was diluted in sterile saline to prepare inocula. Various test articles were transferred to individual tubes already containing 1.0×10^5 to 2.0×10^5 Colony Forming Units (CFU)/mL bacteria and mixed by gentle vortexing and then incubated at 37° C. for 1 or 24 hours. In an attempt to mimic as far as possible the conditions, which could be produced in vivo if the test articles were used as antiseptics, bacterial plating in a Petri dish was performed immediately after the designated exposure time without the addition of a neutralizer, and independently with addition of neutralizer (as control). Thus, 0.1 mL was removed after 1 or 24 hours exposure times and plated. Plates were incubated at 37° C., and the numbers of bacteria were counted by direct colony count to numerate the surviving bacteria as CFU/mL. Positive growth controls were made with sterile 0.9% saline. All test articles were tested three times.

[3] = pH=1.88; after 100 hours; cited from earlier work
[4] = UV-vis spectrum and concentration of NNDCT solutions at pH 3.0 to 5.0; format: physicochemical; conditions: 1.49 mM; pH range from 3.0 to 5.0
Procedure: The spectra and the concentrations of the solutions were measured on the UV-vis spectrometer.
Add 8.8 g NaCl, 2 ml of 1.0 M HCl, and 0.278 g of taurine into a 1000-ml volumetric flask, followed by adding about 800 ml of deionized water into the flask. Shake the flask to dissolve NaCl and taurine powders. Then add […] of 0.15M of the NaOCl solution into the flask. Fill the flask up to the mark with deionized water. Stir the solution with a magnetic stirring bar for 5 minutes. The concentration and the pH of the resulting solution were measured on a UV-vis spectrometer and a freshly calibrated Beckman pH meter. This solution has a concentration of 1.49 mM and a pH value of 3.85. […] The final pH of this solution is 3.0. […] The final pH of this solution is 4.85.
Solutions with varying pH values were prepared in a similar manner within the pH range of 3 to 5. All solutions show stability if properly stored as shown by their UV spectra.

in vitro = conditions: human, pH 3.5
Procedure: as §1

[5] = Storage stability of N,N-dichlorotaurine solution in a vial in a refrigerator; format: physicochemical; conditions: solution in a vial stored in a refrigerator; three months
Procedure: The stability of a solution of N,N-dihaloamino acids and their derivatives permits the use of different forms of packaging that would be practical for use by patients. The solution may be packaged in several single-use 30 ml amber glass bottles with Teflon-lined screw caps and sealed with tape to ensure gas tightness. In one aspect, the same solution may be packaged in a 250 ml amber glass bottle or in a 250 ml non-reactive plastic bottle. However, up to 5 liter bottles may be used, because such larger volumes are practical for treatment of burns. Storage in these receptacles ensures long-term stability required for the uses of the compositions described herein in detail. […] Additionally, packaging may include a dual chamber system where component A is mixed with component B to form the final product, N,N-dihaloamino acid or its derivatives.

[6] = Volatility test, tightly vs loosely capped bottles; format: physicochemical; conditions: 1.47 mM in 0.9% saline at pH 3.5; 4 weeks at room temperature
Procedure: NNDCT is not volatile. A solution of 1.47 mM in 0.9% saline at pH 3.5 was filled in two glass bottles. One bottle was capped tightly and another was capped loosely.

[7] = pH 3.5
[8] = format: physicochemical
Text: N,N-dichlorotaurine can be identified and quantitatively determined by UV spectroscopy.

OCl [OCl^−, reference compound]
cell inhibitory concentration toxicity index (CCI50 / IC50), 50% of cells still alive [1]: 660 µM

O=S(=O)(O)CCNCl [NCT, N-chlorotaurine, reference compound]
factor by which less antimicrobial than NNDCT ([2]; on an equal concentration basis): 1000 fold

O=S(=O)(O)CCN(Cl)Cl [NNDCT, N,N-dichlorotaurine]
loss of N,N-dichlorotaurine [3]: less than 5% | change of spectrum and concentration of solution with pH [4]: did not change | IC50 at 60 min (in vitro): 1440 µg/mL (≈ 7.43 mM) | range of cell toxicity relative to antimicrobial (μM) range ([1]; 0.9% saline at pH 3.5, XTT assay, cell type not stated in Example 5): 1000 fold | cell inhibitory concentration toxicity index (CCI50 / IC50), 50% of cells still alive [1]: 7000 µM | loss of N,N-dichlorotaurine [5]: no more than 13% | volatility [6]: not volatile | bacterial killing efficiency of NNDCT at pH 3.5 compared to NCT at pH 9.5 ([2]; 60 min exposure at 37° C.): 1000 fold | bacterial killing efficiency of NNDCT at pH 3.5 over NNDCT at pH 5.0 ([2]; 60 min exposure at 37° C.): about 300 fold | effectiveness against E. coli compared with HOCl ([2]; pH 3.5): better or as effective against E. coli as HOCl | NNDCT lost ([7]; 4 weeks, refrigerator (4° C.), [NNDCT]initial=1.47 mM): 5.4% | order of stability at three temperatures [7]: 4° C.>room temperature>40 °C | solubility in water [8]: very soluble

OCl [HOCl, hypochlorous acid, reference compound]
IC50 at 60 min (in vitro): 47 µg/mL (≈ 0.896 mM) | cell inhibitory concentration toxicity index (CCI50 / IC50), 50% of cells still alive [1]: 800 µM
